The target in one test is orexin-1 (Homo sapiens (Human), UniProt O43613). As to the kind of experiment: Intracellular calcium measurement (FLIPR), CHO cells expressing human orexin-1 receptor, 3 nM orexin-A. The class given is cell-based. To be noted: read-out: IC50 OX1. In a few lines:
(§1)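 HBSS buffer with 0.1% BSA, NaHCO3 and 20 mM HEPES carries both compounds and agonist. Dye: fluo-4 AM (3 μM) with 5 mM probenecid. Compound exposure 120 min; peak signal scored against uninhibited orexin-A response.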

A further test concerns the target human orexin-2 receptor (Homo sapiens (Human), UniProt O43614). In words: Intracellular calcium measurement (FLIPR), CHO cells expressing human orexin-2 receptor, 3 nM orexin-A. It is filed as cell-based. To be noted: read-out: IC50 OX2. In a few lines: as §1
Where [1] appears, read: CHO cells expressing human orexin-1 receptor, FLIPR, 3 nM orexin-A, geometric mean if determined several times.
Where [2] appears, read: CHO cells expressing human orexin-2 receptor, FLIPR, 3 nM orexin-A, geometric mean if determined several times.

Read-outs that look alike come from different tables or passages of the source.

Chain of orexin-1 (O43613 whole entry): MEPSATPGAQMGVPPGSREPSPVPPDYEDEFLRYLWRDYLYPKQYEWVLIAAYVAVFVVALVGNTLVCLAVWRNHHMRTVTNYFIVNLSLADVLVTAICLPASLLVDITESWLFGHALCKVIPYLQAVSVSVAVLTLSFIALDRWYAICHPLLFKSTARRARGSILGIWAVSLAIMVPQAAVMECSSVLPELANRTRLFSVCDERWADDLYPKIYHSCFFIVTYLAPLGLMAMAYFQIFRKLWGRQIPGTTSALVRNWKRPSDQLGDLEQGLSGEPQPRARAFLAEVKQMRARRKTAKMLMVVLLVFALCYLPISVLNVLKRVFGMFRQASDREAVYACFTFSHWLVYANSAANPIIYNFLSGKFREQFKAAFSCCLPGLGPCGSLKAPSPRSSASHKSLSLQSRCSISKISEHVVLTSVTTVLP
Chain of human orexin-2 receptor (O43614 whole entry): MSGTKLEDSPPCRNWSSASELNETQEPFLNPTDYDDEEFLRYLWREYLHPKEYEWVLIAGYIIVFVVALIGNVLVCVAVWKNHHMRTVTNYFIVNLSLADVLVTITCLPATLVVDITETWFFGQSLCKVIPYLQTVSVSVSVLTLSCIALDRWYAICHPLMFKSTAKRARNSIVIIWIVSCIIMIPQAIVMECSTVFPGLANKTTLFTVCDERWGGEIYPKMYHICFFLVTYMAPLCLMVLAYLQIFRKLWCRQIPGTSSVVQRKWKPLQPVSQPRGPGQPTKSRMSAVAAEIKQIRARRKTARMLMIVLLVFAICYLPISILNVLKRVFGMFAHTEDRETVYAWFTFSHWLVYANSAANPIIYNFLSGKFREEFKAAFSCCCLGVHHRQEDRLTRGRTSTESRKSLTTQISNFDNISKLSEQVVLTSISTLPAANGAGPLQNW

On to `O=C(c1ncsc1-c1cccc(Cl)c1)N1CCC[C@H]1c1nc(-c2ccccc2OC(F)(F)F)no1` [compound 142], for which the IC50 on orexin-1 (setting [1]) amounted to 0.123 µM; on human orexin-2 receptor (setting [2]), 0.08 µM.
With `Cc1ncc(C(=O)N2CCC[C@H]2c2nc(-c3cccc(Cl)c3C)no2)c(-c2cccc(Cl)c2)n1` [compound 127], the IC50 at orexin-1 (setting [1]) amounted to 0.581 µM; at human orexin-2 receptor it was 0.125 µM.
`COc1ccc(C)cc1-c1nc([C@@H]2CCCN2C(=O)c2cc(C)c(C)cc2-n2nccn2)no1` [compound 384, (4,5-Dimethyl-2-[1,2,3]triazol-2-yl-phenyl)-{(S)-2-[5-(2-methoxy-5-methyl-phenyl)-[1,2,4]oxadiazol-3-yl]-pyrrolidin-1-yl}-methanone]: the IC50 at orexin-1 (setting [1]) is 0.022 µM; at human orexin-2 receptor (setting [2]), 0.002 µM.
For “{(S)-2-[3-(3-Chloro-phenyl)-[1,2,4]oxadiazol-5-yl]-pyrrolidin-1-yl}-furan-3-yl-methanone [Reference compound 5, reference compound]”, the values for the IC50 at orexin-1 (setting [1]) and on human orexin-2 receptor (setting [2]) were 0.403 µM and 0.554 µM, respectively.
`Cc1cc(C)cc(-c2noc([C@@H]3CCCN3C(=O)c3cc(C)ccc3-n3nccn3)n2)c1` [compound 11, {(S)-2-[3-(3,5-Dimethyl-phenyl)-[1,2,4]oxadiazol-5-yl]-pyrrolidin-1-yl}-(5-methyl-2-[1,2,3]triazol-2-yl-phenyl)-methanone]: the IC50 was 0.058 µM at orexin-1 (setting [1]) and 0.006 µM at human orexin-2 receptor (setting [2]).
For `Cc1ccc(-n2nccn2)c(C(=O)N2CCC[C@H]2c2nc(-c3cccc4c3OCO4)no2)c1` [compound 52, [(S)-2-(3-Benzo[1,3]dioxol-4-yl-[1,2,4]oxadiazol-5-yl)-pyrrolidin-1-yl]-(5-methyl-2-[1,2,3]triazol-2-yl-phenyl)-methanone], the IC50 at orexin-1 (setting [1]) was determined as 0.182 µM; on human orexin-2 receptor (setting [2]) it was 0.025 µM.
For the molecule `CCc1ccccc1-c1nc([C@@H]2CCCN2C(=O)c2cc(Cl)ccc2-n2nccn2)no1` [compound 395], the IC50 on orexin-1 was determined as 0.031 µM; on human orexin-2 receptor it was 0.01 µM.
Consider `Cc1ccc(-n2nccn2)c(C(=O)N2CCC[C@H]2c2cc(-c3ccccc3)on2)c1` [compound 430, (5-Methyl-2-[1,2,3]triazol-2-yl-phenyl)-[(S)-2-(5-phenyl-isoxazol-3-yl)-pyrrolidin-1-yl]-methanone], for which the results for the 50% inhibitory concentration (IC50) at orexin-1 (setting [1]) and on human orexin-2 receptor (setting [2]) were 0.359 µM and 0.051 µM, respectively.
Consider `COc1ccccc1-c1noc([C@@H]2CCCN2C(=O)c2cc(F)ccc2-n2nccn2)n1` [compound 233, (5-Fluoro-2-[1,2,3]triazol-2-yl-phenyl)-{(S)-2-[3-(2-methoxy-phenyl)-[1,2,4]oxadiazol-5-yl]-pyrrolidin-1-yl}-methanone], for which the IC50 at orexin-1 (setting [1]) stood at 1.41 µM; at human orexin-2 receptor (setting [2]) it was 0.341 µM.
Take `Cc1cccc(-c2oc(C)nc2C(=O)N2CCC[C@H]2c2nc(-c3ccccc3OC(F)(F)F)no2)c1` [compound 139, (2-Methyl-5-m-tolyl-oxazol-4-yl)-{(S)-2-[3-(2-trifluoromethoxy-phenyl)-[1,2,4]oxadiazol-5-yl]-pyrrolidin-1-yl}-methanone]: the IC50 on orexin-1 (setting [1]) was 0.124 µM; on human orexin-2 receptor (setting [2]), 0.062 µM.
In the case of `Cc1ccc(-n2nccn2)c(C(=O)N2CCC[C@H]2c2nc(-c3ccc(C)c(C)c3)no2)c1` [compound 80, {(S)-2-[3-(3,4-Dimethyl-phenyl)-[1,2,4]oxadiazol-5-yl]-pyrrolidin-1-yl}-(5-methyl-2-[1,2,3]triazol-2-yl-phenyl)-methanone], the IC50 on orexin-1 (setting [1]) was found to be 0.252 µM; on human orexin-2 receptor (setting [2]), 0.016 µM.
In the same order, the values of `CCOc1ccccc1-c1noc([C@@H]2CCCN2C(=O)c2ccccc2-n2nccn2)n1` [compound 260, {(S)-2-[3-(2-Ethoxy-phenyl)-[1,2,4]oxadiazol-5-yl]-pyrrolidin-1-yl}-(2-[1,2,3]triazol-2-yl-phenyl)-methanone] are 0.392 µM and 0.063 µM.
Turning to `Cc1ccc(-n2nccn2)c(C(=O)N2CCC[C@H]2c2noc(-c3cnc4sccn34)n2)c1` [compound 313, [(S)-2-(5-Imidazo[2,1-b]thiazol-5-yl-[1,2,4]oxadiazol-3-yl)-pyrrolidin-1-yl]-(5-methyl-2-[1,2,3]triazol-2-yl-phenyl)-methanone], the figures for the IC50 on orexin-1 (setting [1]) and on human orexin-2 receptor (setting [2]) were 0.661 µM and 0.076 µM, respectively.
Take `Cc1ccc(C(=O)N2CCC[C@H]2c2cnc(-c3cccc(Cl)c3C)[nH]2)c(-n2nccn2)c1` [compound 522]: the results for the IC50 on orexin-1 and at human orexin-2 receptor were 2.11 µM and 0.367 µM, respectively.
As for `Cc1ccc(-n2nccn2)c(C(=O)N2CCC[C@H]2c2nc(-c3cccc(Cl)c3C)no2)c1F` [compound 266], the IC50 at orexin-1 turned out to be 0.115 µM; at human orexin-2 receptor, 0.014 µM.
Consider `Cc1ccc(-n2nccn2)c(C(=O)N2CCC[C@H]2c2nc(-c3cccc4cc[nH]c34)no2)c1` [compound 46, {(S)-2-[3-(1H-Indol-7-yl)-[1,2,4]oxadiazol-5-yl]-pyrrolidin-1-yl}-(5-methyl-2-[1,2,3]triazol-2-yl-phenyl)-methanone], for which the IC50 on orexin-1 (setting [1]) was 0.004 µM; at human orexin-2 receptor (setting [2]) it was 0.009 µM.
As to `Cc1ccc(-n2nccn2)c(C(=O)N2CCC[C@H]2c2nc(-c3c(C)cncc3C)no2)c1` [compound 37, {(S)-2-[3-(3,5-Dimethyl-pyridin-4-yl)-[1,2,4]oxadiazol-5-yl]-pyrrolidin-1-yl}-(5-methyl-2-[1,2,3]triazol-2-yl-phenyl)-methanone], the figures for the IC50 at orexin-1 (setting [1]) and at human orexin-2 receptor (setting [2]) were over 5.64 µM and 1.06 µM, respectively.
With `COc1cc(C(=O)N2CCC[C@H]2c2noc(-c3cccc(Cl)c3OC)n2)c(-n2nccn2)cc1C` [compound 348], the IC50 on orexin-1 (setting [1]) came out at 0.01 µM; at human orexin-2 receptor (setting [2]) it was 0.001 µM.
Consider `COc1cccc(-c2nc([C@@H]3CCCN3C(=O)c3cc(Cl)ccc3-n3nccn3)no2)c1C` [compound 361], for which the IC50 at orexin-1 (setting [1]) was found to be 0.127 µM; on human orexin-2 receptor (setting [2]), 0.061 µM.
In the same order, the values of `Cc1ccc(C)c(-c2nc([C@@H]3CCCN3C(=O)c3ccc(C)cc3-n3nccn3)no2)c1` [compound 393, {(S)-2-[5-(2,5-Dimethyl-phenyl)-[1,2,4]oxadiazol-3-yl]-pyrrolidin-1-yl}-(4-methyl-2-[1,2,3]triazol-2-yl-phenyl)-methanone] are 0.057 µM and 0.01 µM.
In the case of `CCOc1ncccc1-c1noc([C@@H]2CCCN2C(=O)c2cc(C)ccc2-c2ncco2)n1` [compound 224, {(S)-2-[3-(2-Ethoxy-pyridin-3-yl)-[1,2,4]oxadiazol-5-yl]-pyrrolidin-1-yl}-(5-methyl-2-oxazol-2-yl-phenyl)-methanone], the IC50 at orexin-1 (setting [1]) was 0.019 µM; at human orexin-2 receptor (setting [2]) it was 0.006 µM.
For `Cc1c(Cl)cccc1-c1noc([C@@H]2CCCN2C(=O)c2cccc(F)c2-n2cccn2)n1` [compound 113], the IC50 at orexin-1 (setting [1]) was 1.2 µM; at human orexin-2 receptor (setting [2]), 0.146 µM.
Take `Cc1c(Cl)cccc1-c1noc([C@@H]2CCCN2C(=O)c2ccc(F)cc2-n2cccn2)n1` [compound 111]: the values for the IC50 at orexin-1 (setting [1]) and on human orexin-2 receptor (setting [2]) were 1.15 µM and 0.261 µM, respectively.
Take `CCOc1ncccc1-c1cc([C@@H]2CCCN2C(=O)c2cc(C)ccc2-n2nccn2)on1` [compound 428, {(S)-2-[3-(2-Ethoxy-pyridin-3-yl)-isoxazol-5-yl]-pyrrolidin-1-yl}-(5-methyl-2-[1,2,3]triazol-2-yl-phenyl)-methanone]: the IC50 on orexin-1 (setting [1]) came out at 0.067 µM; on human orexin-2 receptor (setting [2]), 0.028 µM.

(Values after patent US9493446B2, “Orexin receptor antagonists which are [ortho bi-(hetero-)aryl]-[2-(meta bi-(hetero-)aryl)-pyrrolidin-1-yl]-methanone derivatives” (Actelion Pharmaceuticals Ltd, priority 2012, dated 2016).)
